{
  "source": "patent US7465814B2",
  "about": "“Sulfonate compound and fluorescent probe using the same” (priority 2003, dated 2008)",
  "key": {"[1]": {"test": "Fluorescent response to XO-HPX system, 96-well microplate (Table 1)", "type": "biochemical", "settings": "relative fluorescence intensity, blank = 10, probe 21.3 μM, 10 minutes", "experimental": "(§1) Moreover, in other conditions than those of the above-described tests, reactivity of all of the compounds 1a to 1d with H2O2, other various kinds of nucleophilic agents, reducing agents and the like also was tested, respectively. More specifically, fluorescent responses of 1a to 1d with respect to a XO-HPX system, a XO-HPX-SOD system, H2O2, ascorbic acid, 1,4-hydroquinone, propylamine, diethylamine, glucose, esterase, a cytochrome P450 reductase+NADPH system, and a diaphorase+NADH system were measured, respectively. Operational processes thereof will be described below. Firstly, 1a to 1d and the above-described reagents were dissolved in HEPES of 10 mM having a pH of 7.4 so as to prepare solutions, respectively. Next, a 96 wellmicroplate was provided, where any of the solutions of 1a to 1d (25 μM, 170 μL) was poured into each of the wells, and furthermore, 30 μL of a blank solution or 30 μL of the solution of the reagent to be reacted therewith was added thereto. Final concentrations of the solutions in the wells were adjusted so that concentrations of the solutions of 1a to 1d respectively could be 21.3 μM, that of XO could be 13.1 mU/mL, those of HPX, H2O2, ascorbic acid, 1,4-hydroquinone, propylamine, diethylamine, glucose, NADPH and NADH respectively could be 50 μM, that of cytochrome P450 reductase could be 68 mU/mL, that of diaphorase could be 65 mU/mL, and that of esterase could be 0.5 U/mL, respectively. Then, after they reacted in the wells at 37° C. for 10 minutes, fluorescent responses were measured respectively. Fluorescence intensity measurement was conducted by using an ETC-272 Peltier thermostatted single cell holder (trade name) manufactured by JASCO Corporation or a SpectraMax GeminiEM fluorescence plate reader (trade name) manufactured by Molecular Devices Corporation provided with a FP-750 spectrofluorometer (trade name) manufactured by JASCO Corporation, and by setting excitation wavelengths and emission wavelengths so that those of 1a, 1b and 1c respectively could be 485 nm and 515 nm, and those of 1d respectively could be 511 nm and 540 nm."}, "[2]": {"system": "neutrophils stimulated by phorbol myristate acetate (PMA)", "test": "Superoxide detection in PMA-stimulated neutrophils (FIG. 2, FIG. 3)", "type": "cell-based, human", "settings": "probe 25 μM solution 50 μL, PMA 0.64 μM solution 50 μL, 37° C., 120 minutes", "excerpt": "It is known that, if neutrophils are stimulated by phorbol ester, superoxide is produced. […] A specific testing method will be described below.\nFirstly, whole blood donated by a good-health volunteer was heparinized, and it was subjected to centrifugal separation after adding a Mono-Poly resolving medium manufactured by Dainippon Pharmaceutical Co. Ltd. thereto. After the separation, cells were washed with PBS (−) twice, were suspended again at a concentration of 1.0×10^6 or 1.0×10^5 cells/mL by using PBS (+), and were maintained under an ice-cold condition until they were used. […] Fluorescence intensity measurement was conducted immediately (measurement at the time 0), and thereafter, incubation was conducted at 37° C. for 120 minutes. During the incubation, a change of the fluorescence intensity of the cells was measured once every 30 minutes. All of the measurements were conducted by using a CytoFluor II multiwell fluorescence plate reader (trade name) manufactured by PerSeptive Biosystems, Inc. in the U.S., by setting an excitation filter and an emission filter at 485±20 nm and 530±25 nm, respectively.\nA horizontal axis of the graph denotes an incubation time (minute), and a vertical axis thereof denotes a fluorescence intensity (au). […]"}, "[3]": {"test": "Fluorescent response to 1,4-hydroquinone (Table 1)", "type": "biochemical", "settings": "relative fluorescence intensity, blank = 10; probe 21.3 μM, 1,4-hydroquinone 50 μM, 37° C., 10 minutes", "experimental": "as §1"}},
  "data": [
    {"compound": "O=C1OC2(c3ccccc31)c1cc(F)c(OS(=O)(=O)c3ccc([N+](=O)[O-])cc3[N+](=O)[O-])c(F)c1Oc1c2cc(F)c(OS(=O)(=O)c2ccc([N+](=O)[O-])cc2[N+](=O)[O-])c1F", "note": "[Compound 1d]", "values": [
      {"measurement": "fluorescent response, XO—HPX", "setting": "[1]; XO 13.1 mU/mL, HPX 50 μM, HEPES pH 7.4, 37° C.", "result": 554},
      {"measurement": "fluorescent response, XO—HPX—SOD", "setting": "[1]; XO-HPX with SOD, 37° C.", "result": 60},
      {"measurement": "detection of superoxide from PMA-stimulated neutrophils", "setting": "[2]", "result": "could detect superoxide with high sensitivity in a cell system also"},
      {"measurement": "fluorescent response, 1,4-hydroquinone", "setting": "[3]", "result": 11}
    ]}
  ]
}
